# Marks after values point to notes of the source that are not given here.
# Legend:
# [1] = tested on: PGE2-induced thermal hypersensitivity; assay: Reversal of prostaglandin E2 (PGE2)-induced thermal hypersensitivity, warm-water tail withdrawal; type: in vivo, Sprague-Dawley rats; settings: single oral (PO) dose before PGE2 injection into tail, assessed 30 min after PGE2, SEM in parentheses
# Protocol: The compounds of the present invention were evaluated for their effectiveness to treat pain. […] The test methods used herein have been used by others skilled in the art to evaluate the effectiveness of compounds for relieving pain. See e.g., Bennett G J and Xie T K, A peripheral mononeuropathy in rat produces disorders of pain sensation like those seen in man, Pain 33: 87-107 (1988); Chaplan S R, Bach […], Chung J M and Yaksh T L, Quantitative assessment of tactile allodynia in the rat paw, J. Neurosci. Methods 53: 55-63 (1994); and Mosconi T and Kruger L, Fixed-diameter polyethylene cuffs applied to the rat sciatic nerve induce a painful neuropathy: ultrastructural morphometric analysis of axonal alterations Pain 64: 37-57 (1996). Individually housed Sprague-Dawley rats had free access to rat chow and water. A 12-h light/12-h dark cycle was in effect (lights on from 6:00 am to 6:00 pm). Animal maintenance and research were conducted in accordance with the guidelines provided by the National Institutes of Health Committee on Laboratory Animal Resources. These subjects were used in the tests below. The terminal 10 cm of the tail was placed into a thermos bottle containing water warmed to 38, 42, 46, 50 or 54° C. The latency in seconds for the animal to remove the tail from the water was used as a measure of nociception. […] Temperature-effect curves were generated before (baseline) and 30 minutes after the PGE2 injection. […] The ability of compounds to reverse PGE2-induced thermal hypersensitivity was assessed using a single dose time-course procedure. […] sensitivity was assessed 30 min after PGE2 injection. Data Analysis-The temperature that produced a half-maximal increase in the tail-withdrawal latency (i.e., T10) was calculated from each temperature-effect curve. The T10 was determined by interpolation from a line drawn between the point above and the point below 10 sec on the temperature-effect curve.
melting point [°C],Compound,"Reversal of PGE2-induced thermal hypersensitivity, % MPE (±1 SEM) ([1]; 30 mg/kg)","Reversal of PGE2-induced thermal hypersensitivity, % MPE (±1 SEM) ([1]; 10 mg/kg)"
64 to 65,"O=C(OCOP(=O)(CCN1CCCNc2c1c(=O)c2=O)OCOC(=O)C1CCCCC1)C1CCCCC1 [Example 6, 7-Cyclohexyl-3-{2-[8,9-dioxo-2,6-diazabicyclo[5.2.0]non-1(7)-en-2-yl]ethyl}-3-oxido-7-oxo-2,4,6-trioxa-3-phosphahept-1-yl cyclohexanecarboxylate]",16.8 (6.8) % MPE,–
–,"CC(OC(=O)C1CCCCC1)OP(=O)(CCN1CCCNc2c1c(=O)c2=O)OC(C)OC(=O)C1CCCCC1 (stereo not shown) [Example 5, 7-cyclohexyl-3-{2-[8,9-dioxo-2,6-diazabicyclo[5.2.0]non-1(7)-en-2-yl]ethyl}-1,5-dimethyl-3-oxido-7-oxo-2,4,6-trioxa-3-phosphahept-1-yl cyclohexanecarboxylate]",55.9 (9.8) % MPE,–
–,"O=c1c2c(c1=O)N(CCP(=O)(O)O)CCCN2 [Comparative 1, [2-(8,9-dioxo-2,6-diazabicyclo[5.2.0]non-1(7)-en-2-yl)ethyl]phosphonic acid, reference compound]",44 (9.5) % MPE,−4.7 (10.6)** % MPE
–,"CC(C)(C)C(=O)OCOC(CCN1CCCNc2c1c(=O)c2=O)(O[PH2]=O)OC(=O)C(C)(C)C (stereo not shown) [Example 3, 2,2-Dimethyl-propionic acid (2,2-dimethyl-propionyloxymethoxy)-[2-(8,9-dioxo-2,6-diaza-bicyclo[5.2.0]non-1(7)-en-2-yl)-ethyl]-phosphinoyloxymethyl ester]",87.6 (3.3) % MPE,–
–,"CC(OC(=O)C1CCCCC1)OP(=O)(CCN1CCCNc2c1c(=O)c2=O)OC(C)OC(=O)C1CCCCC1 (stereo not shown) [Example 4, 7-Cyclohexyl-3-{2-[8,9-dioxo-2,6-diazabicyclo[5.2.0]non-1(7)-en-2-yl]ethyl}-1,5-dimethyl-3-oxido-7-oxo-2,4,6-trioxa-3-phosphahept-1-yl cyclohexanecarboxylate]",78.9 (5.8) % MPE,–
–,"CC(C)OC(=O)OCOP(=O)(CCN1CCCNc2c1c(=O)c2=O)OCOC(=O)OC(C)C [Example 7, [2-(8,9-Dioxo-2,6-diaza-bicyclo[5.2.0]non-1-(7)-en-2-yl)-ethyl]-phosphonic acid diiso propoxycarbonyloxymethyl ester]",77.5 (6.7) % MPE,47.0 (12.6) % MPE
–,"CCCC(CCC)C(=O)OCOP(=O)(CCN1CCCNc2c1c(=O)c2=O)OCOC(=O)C(CCC)CCC [Example 2, 3-{2-[8,9-Dioxo-2,6-diazabicyclo[5.2.0]non-1(7)-en-2-yl]ethyl}-3-oxido-7-oxo-8-propyl-2,4,6-trioxa-3-Phosphaundec-1-yl 2-propylpentanoate]",76.5 (3.3) % MPE,45.6 (13.9) % MPE
–,"O=C(OCOP(=O)(CCN1CCCNc2c1c(=O)c2=O)OCOC(=O)c1ccccc1)c1ccccc1 [Example 1, 3-{2-[8,9-Dioxo-2,6-diazabicyclo[5.2.0]non-1(7)-en-2-yl]ethyl}-3-oxido-7-oxo-7-phenyl-2,4,6-trioxa-3-phosphahept-1-yl benzoate]",81 (3.4) % MPE,57.2 (4.7) % MPE
